Data from ChEMBL document CHEMBL4715857, “Structure-based linker exploration: Discovery of 1-ethyl-1H-indole analogs as novel ATX inhibitors” (Bioorg Med Chem, 2020).

These compounds were tested against Autotaxin (Homo sapiens, UniProt Q13822) (assay: Inhibition of glycosylated human ATX using FS-3 as substrate preincubated for 45 mins followed by substrate addition and measured every 1 min for 30 mins by fluorescence microplate reader assay).
For `CCn1cc(C(=O)N/N=C/c2coc3ccccc3c2=O)c2cc(-c3nc(CN4CCOCC4)cs3)ccc21`, the IC50 was 7240 nM.
With `CCn1cc(NC(=O)NCc2ccc(F)cc2)c2cc(NC(=O)c3ccc(CN4CCC(O)CC4)cc3)ccc21` the IC50 was 2.3 nM.
Compound `CCn1cc(C(=O)N/N=C/c2c(O)ccc3ccccc23)c2cc(-c3nc(CN4CCOCC4)cs3)ccc21` has an IC50 greater than 10000 nM.
For `CCn1cc(C(=O)N/N=C/c2ccc(F)cc2Cl)c2cc(-c3nc(CN4CCOCC4)cs3)ccc21`, the IC50 was 6370 nM.
Compound `CCn1cc(C(=O)O)c2cc(-c3nc(CN4CCC[C@H]4CO)cs3)ccc21` has an IC50 of 590 nM.
`CCn1cc(C(=O)N/N=C/c2ccc(F)cc2F)c2cc(-c3nc(CN4CCOCC4)cs3)ccc21` gave an IC50 of 4050 nM.
`CCn1cc(C(=O)N/N=C(\C)c2ccc(OC)cc2)c2cc(-c3nc(CN4CCOCC4)cs3)ccc21` gave an IC50 greater than 10000 nM.
For `CCn1cc(NC(=O)NCc2ccc(F)cc2)c2cc(-c3nc(CN(CCO)CCO)cs3)ccc21`, the IC50 was 234 nM.
For `CCn1cc(NC(=O)NCc2ccc(F)cc2)c2cc(-c3nc(CN4CCC(O)CC4)cs3)ccc21`, the IC50 was 313 nM.
With `CCn1cc(NC(=O)NCc2ccc(F)cc2)c2cc(NC(=O)c3ccc(CN4CCN(CCO)CC4)cc3)ccc21` the IC50 was 101 nM.
Compound `CCn1cc(C(=O)O)c2cc(-c3nc(CN4CCN(CCO)CC4)cs3)ccc21` has an IC50 of 410 nM.
`CCn1cc(NC(=O)NCc2ccc(F)cc2)c2cc(NC(=O)c3ccc(CN4CCCCC4)cc3)ccc21` showed an IC50 of 530 nM.
In the case of `CCn1cc(NC(=O)NCc2ccc(F)cc2)c2cc(NC(=O)c3ccc(CN4CCCC4)cc3)ccc21`, the IC50 is reported as 280 nM.
`CCn1cc(C(=O)N/N=C/c2ccc(C(F)(F)F)cc2)c2cc(-c3nc(CN4CCOCC4)cs3)ccc21` gave an IC50 of 6140 nM.
Compound `CCn1cc(NC(=O)NCc2ccc(F)cc2)c2cc(NC(=O)c3ccc(CN4CCC(C)CC4)cc3)ccc21` has an IC50 of 370 nM.
`CCn1cc(C(=O)O)c2cc(-c3nc(CN4CCCC4)cs3)ccc21` was tested, and the IC50 was 930 nM.
Compound `CCn1cc(C(=O)N/N=C2\CCc3cc(Br)ccc32)c2cc(-c3nc(CN4CCOCC4)cs3)ccc21` has an IC50 greater than 10000 nM.
`CCn1cc(NC(=O)NCc2ccc(F)cc2)c2cc(NC(=O)c3ccc(CN4CCOCC4)cc3)ccc21` gave an IC50 of 110 nM.
In the case of `CCn1cc(NC(=O)NCc2ccc(Cl)cc2)c2cc(-c3nc(CN4CCN(CCO)CC4)cs3)ccc21`, the IC50 is reported as 156 nM.
`CCn1cc(NC(=O)NCc2ccc(Cl)cc2)c2cc(NC(=O)c3ccc(CN4CCCC4)cc3)ccc21` showed an IC50 of 351 nM.
Work on `CCn1cc(C(=O)N/N=C2\CCc3cc(OC)c(OC)cc32)c2cc(-c3nc(CN4CCOCC4)cs3)ccc21` yielded an IC50 of 8270 nM.
For `CCn1cc(NC(=O)NCc2ccc(Cl)cc2)c2cc(NC(=O)c3ccc(CN4CCOCC4)cc3)ccc21`, the IC50 was 107 nM.
`CCn1cc(NC(=O)NCc2ccc(F)cc2)c2cc(NC(=O)c3ccc(CN4CCN(C)CC4)cc3)ccc21` showed an IC50 of 190 nM.
For `CCn1cc(C(=O)O)c2cc(-c3nc(CN(CO)CO)cs3)ccc21`, the IC50 was 710 nM.
`CCn1cc(NC(=O)NCc2ccc(F)cc2)c2cc(-c3nc(CN4CCOCC4)cs3)ccc21` gave an IC50 of 252 nM.
`CCn1cc(C(=O)N/N=C/c2ccc(F)c(F)c2)c2cc(-c3nc(CN4CCOCC4)cs3)ccc21` showed an IC50 of 3490 nM.
`CCn1cc(NC(=O)NCc2ccc(Cl)cc2)c2cc(NC(=O)c3ccc(CN4CCC(O)CC4)cc3)ccc21` was tested, and the IC50 was 13.1 nM.
For `CCn1cc(C(=O)O)c2cc(-c3nc(CN4CCC(O)CC4)cs3)ccc21`, the IC50 was 680 nM.
In the case of `CCn1cc(C(=O)O)c2cc(-c3nc(CN4CCOCC4)cs3)ccc21`, the IC50 is reported as 820 nM.
Work on `CCn1cc(C(=O)O)c2cc(-c3nc(CN4CCN(C)CC4)cs3)ccc21` yielded an IC50 of 1290 nM.
In the case of `CCn1cc(C(=O)N/N=C(\C)c2ccc(F)cc2F)c2cc(-c3nc(CN4CCOCC4)cs3)ccc21`, the IC50 is reported as 9230 nM.
Compound `CCn1cc(NC(=O)NCc2ccc(Cl)cc2)c2cc(-c3nc(CN4CCN(C)CC4)cs3)ccc21` has an IC50 of 199 nM.
